From patent publication US11434479B2, “Sialic acid binding polypeptide” (priority 2017, dated 2022)
Substitutions are numbered along the chain they refer to. pKd: −log10 of the molar value. Entries after “also recorded” stand apart in the source; their conditions may differ.

Experiments:
[1] = biological target: T1, Streptococcus pneumoniae NanB fragment (residues 30-697, SEQ ID NO:4) variant Sia-PS1, Y653F (Streptococcus pneumoniae serotype 4, UniProt Q54727, Y653F); assay: Bio-layer Interferometry (BLI) steady-state binding to immobilized oligosaccharides; conditions: in words
T1 construct: exemplified by a NanB fragment (residues 30-697); made in house; host or cells: pET28a+ based plasmid
T1 sequence (Q54727 30-692 Y653F): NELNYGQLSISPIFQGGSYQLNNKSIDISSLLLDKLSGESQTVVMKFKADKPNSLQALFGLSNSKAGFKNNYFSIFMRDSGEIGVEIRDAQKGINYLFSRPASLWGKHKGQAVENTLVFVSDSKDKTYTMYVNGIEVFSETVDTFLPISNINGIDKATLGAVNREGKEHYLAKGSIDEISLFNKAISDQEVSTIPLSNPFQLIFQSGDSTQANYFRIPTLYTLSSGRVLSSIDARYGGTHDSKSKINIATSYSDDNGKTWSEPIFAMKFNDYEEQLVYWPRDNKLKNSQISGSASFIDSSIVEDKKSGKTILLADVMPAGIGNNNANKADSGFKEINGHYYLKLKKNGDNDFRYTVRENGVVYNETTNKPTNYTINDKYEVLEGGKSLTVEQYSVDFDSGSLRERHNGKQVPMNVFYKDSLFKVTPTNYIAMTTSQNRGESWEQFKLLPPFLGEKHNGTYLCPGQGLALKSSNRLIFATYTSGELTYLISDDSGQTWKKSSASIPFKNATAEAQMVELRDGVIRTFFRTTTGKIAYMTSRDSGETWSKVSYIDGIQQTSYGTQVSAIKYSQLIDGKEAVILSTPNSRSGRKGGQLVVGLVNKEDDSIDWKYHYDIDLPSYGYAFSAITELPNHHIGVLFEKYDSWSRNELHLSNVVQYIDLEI
Description: Lsp=lactose (no sialic acid), 3′SL=α2,3-sialyllactose, 6′SL=α2,6-sialyllactose, GD3=GD3 oligosaccharide that contains a terminal α2,8-linked Neu5Ac residue and an internal α2,3-linked Neu5Ac residue.
The pan-specific sialic acid-recognizing affinity reagent of the invention is exemplified by a NanB fragment (residues 30-697; SEQ ID NO:4) with a single mutation. Exemplary mutation sites include Y653, D270, and E541. Exemplary pan-specific affinity reagents, each having a single mutation in the NanB GH domain as noted, are shown in Table 2 and include Sia-PS1 (Y653F), Sia-PS2 (D270A), Sia-PS3 (D270N), Sia-PS4 (E541A), and Sia-PS5 (E541Q). […] They reduce (Sia-PS2 and Sia-PS3) or effectively eliminate (Sia-PS1, Sia-PS4, and Sia-PS5) catalytic activity, and they broaden specificity for sialic acid ligand binding. The pan-specific sialic acid-recognizing affinity reagent we chose for further validation study was Sia-PS1 that contains the Y653F at active site residue Tyr653. This one mutation, which involves removal of a single hydroxyl group, not only eliminates enzyme activity, but astonishingly introduces pan-specific binding into the mutated, inactivated enzyme, despite its distance from the carbohydrate binding module (CBM) domain of the NanB.
(§1) The flowchart presented in FIG. 2 outlines schematically the methods employed in Example I and II to screen, optimize and select the Lectenz® candidates. The specificity and affinity of potential Lectenz® candidates is evaluated through structurally-guided site-specific and/or site-saturation mutagenesis assays designed to enable the selection of optimal clones. Bio-layer Interferometry (BLI) is used to determine the binding kinetics and affinities for binding to glycans and glycoproteins. Affinity chromatography is performed by immobilizing the Lectenz® candidates in a column format to evaluate their ability to fractionate sialylated- and asialo-glycans and glycoconjugates. All promising Lectenz® candidates are screened against the glycan array at the CFG, which currently contains over 600 O- and N-linked glycans.
Steady-state binding constants between Lectenz® candidates and sialic acid ligands were measured by BLI.

SNA (S. Nigra lectin) = conditions: reported values [16]; cited from earlier work
[2] = biological target: T2, Streptococcus pneumoniae NanB fragment (residues 30-697, SEQ ID NO:4) variant Sia-3S1, R193A, D270Q, A538V, E541D (Streptococcus pneumoniae serotype 4, UniProt Q54727, A538V/D270Q/E541D/R193A); assay: Bio-layer Interferometry (BLI) binding to immobilized 3′SL and 6′SL; conditions: in words, well-defined buffer conditions (10 mM EPPS, 10 or 25 mM NaCl, pH 7.5)
T2 construct: exemplified by a NanB fragment (residues 30-697); made in house; host or cells: E. coli
T2 sequence (Q54727 30-692 R193A/D270Q/A538V/E541D): T1 sequence (Q54727 30-692 Y653F) with R164A, D241Q, A509V, E512D, F624Y
Description: FIGS. 14A and […] show BLI sensograms for the binding of Sia-3S1 (analyte) under different buffer conditions to oligosaccharides (immobilized ligands): 3′SL=α2,3-sialyllactose, 6′SL=α2,6-sialyllactose.
as §1
The methods are as described in Example I.

[3] = biological target: MAL (Maackia amurensis leukoagglutinin); conditions: reported values [16, 17]; cited from earlier work

Row | Compound | binding affinity [1] | pKd (SNA (S. Nigra lectin)) | affinity [2] | pKd [3]
1 | CC(=O)N[C@H]1[C@H]([C@H](O)[C@H](O)CO)O[C@@](OC[C@H]2O[C@@H](O[C@H]3[C@H](O)[C@@H](O)C(O)O[C@@H]3CO)[C@H](O)[C@@H](O)[C@H]2O)(C(=O)O)C[C@@H]1O (stereo partly drawn) [6′SL, 6′-sialyllactose (Neu5Acα2,6Galβ1, 4Glcβ, or 6′SL)] | micromolar or sub-micromolar; also recorded: sub-micromolar | 6.05 to 6.22 | – | –
2 | CC(=O)N[C@H]1[C@H]([C@H](O)[C@H](O)CO)O[C@@](O[C@H](CO)[C@@H](O)[C@@H]2O[C@@](O[C@H]3[C@@H](O)[C@@H](CO)O[C@@H](O[C@H]4[C@H](O)[C@@H](O)C(O)O[C@@H]4CO)[C@@H]3O)(C(=O)O)C[C@H](O)[C@H]2NC(C)=O)(C(=O)O)C[C@@H]1O (stereo partly drawn) [GD3, Neu5Acα2,8Neu5Acα2,3Galβ1, 4Glcβ] | micromolar or sub-micromolar; also recorded: sub-micromolar | – | – | –
3 | CC(=O)N[C@H]1[C@H]([C@H](O)[C@H](O)CO)O[C@@](O[C@H]2[C@@H](O)[C@@H](CO)O[C@@H](O[C@H]3[C@H](O)[C@@H](O)C(O)O[C@@H]3CO)[C@@H]2O)(C(=O)O)C[C@@H]1O (stereo partly drawn) [3′SL, α2,3-sialyllactose] | micromolar or sub-micromolar; also recorded: sub-micromolar | – | high and preferential affinity for 3′SL over 6′SL | 5.52 to 6.00
